Test results: publication PMC4122355, “Inhibitor of the Tyrosine Phosphatase STEP Reverses Cognitive Deficits in a Mouse Model of Alzheimer's Disease” (PLoS Biology, 2014)

Legend:
[1] = system: GluN2B (Y1472), Pyk2 (Y402), ERK1/2 (Y204/187) in cortical neurons; test: Tyr phosphorylation of STEP substrates in cortical neuronal cultures (Western blot); type: cell-based, rat; conditions: 1 µM dose, 1 h, relative to vehicle
Method: Primary cortical neurons were isolated from Sprague Dawley rat embryos (E18) (Charles River Laboratories, Wilmington, MA) as previously described. In some experiments, cortical neurons were made from WT and STEP KO mouse embryos (E18). Neurons were allowed to grow for 18–21 d in CO2 incubator before addition of compounds at indicated doses for 1 h. Immediately following treatments, neurons were lysed in RadioImmuno Precipitation Assay (RIPA) buffer supplied with protease inhibitor cocktail (Roche Applied Science, Indianapolis, IN) and phosphatase inhibitors (NaF and Na3VO4). All experiments were replicated four times with four independent batches of cultures.
Samples were prepared and resolved by SDS-PAGE, transferred to nitrocellulose membrane, and incubated with phospho-specific antibodies (anti-pY^204/187 ERK1/2, anti-pY^402 Pyk2, anti-pY^1472 GluN2B) or total protein antibodies (anti-ERK2, anti-Pyk2, and anti-NR2B) overnight at 4°C. Immunoreactivity was visualized using a Chemiluminescent substrate kit (Pierce Biotechnology, Rockford, IL) and detected using a G:BOX with the image program GeneSnap (Syngene, Cambridge, UK). All densitometric quantifications were performed using the Genetools program.

3xTg-AD and WT mice = test: Morris water maze (MWM), reference memory version; type: in vivo, mouse
Method: The reference memory version of the MWM task was performed as described previously. A crossover design was not used in the MWM task, as the mice were randomly assigned to each treatment condition and can be exposed to the task only once. Briefly, animals were trained to swim in a 1.4 m diameter pool to find a submerged platform (14 cm in diameter) located 1 cm below the surface of water (24°C), rendered opaque by the addition of nontoxic white paint. Animals were pseudo-randomly started from a different position at each trial and used distal visual-spatial cues to find the hidden escape platform that remained in the center of the same quadrant throughout all training days. Training measures included escape latency to reach the platform, swim speed, and thigmotaxis. […] At 24 h after the acquisition phase, the platform was removed and a probe trial of 90 s was given to evaluate the number of entries in a circular zone (three times the platform diameter) positioned around the previous platform location (target zone) and in the opposite quadrants. To assess visual deficits and motivation to escape from water, the probe test was followed by a cued task (60 s; three trials per animal) during which the platform was visible. The visible platform was moved to different locations between each trial. After each trial, animals were immediately placed under a warming lamp to dry to prevent hypothermia. […] Behavioral data from training, probe, and cued trials were acquired and analyzed using the ANY-maze automated tracking system (Stoelting, IL, USA).

[2] = cited from earlier work
Aβ and phospho-tau = Aβ and phospho-tau levels in 12-mo-old 3xTg-AD mice; type: in vivo, mouse; conditions: 10 mg/kg i.p.
Method: Time spent with either a novel or familiar object was recorded using ANY-maze software. Square-root transformation was used to meet the assumptions of normality and equal variance of the raw data. All histograms are presented as means ± s.e.m. Student's t test was applied to determine significance differences (*p<0.05; WT-Veh, n = 10; WT TC, n = 11; AD-Veh, n = 22; AD-TC, n = 19). […] CTFs and Aβ are indicated by arrowheads. Representative 7PA2-CM (Aβ-enriched conditioned medium) immunoprecipitation is shown on right panel. Data are presented as means ± s.e.m. […] Data are presented as means ± s.e.m. […] (TIF) Click here for additional data file.

[3] = system: ERK1/2 (Y204/187) and Pyk2 (Y402); test: Tyr phosphorylation of ERK1/2 and Pyk2 in different organs of WT and STEP KO mice; type: in vivo, mouse
[4] = Stability in imidazole buffer by 19F NMR; type: physicochemical; conditions: 1 h
Method: The tube was allowed to incubate at ambient temperature with shaking for 1 h. The mixture was diluted with 150 µL of DMSO-d6 and transferred to an NMR tube containing a capillary of trifluoroacetic acid as an external standard (−76.55 ppm). The stability of the compound in the buffer was confirmed by observing no differences in the sensitive ^19F-NMR spectra (Figure S4). As a control for compound modification, the experiment was repeated with the addition of 1 mM GSH in the incubation buffer.

mice = system: mice; design: method as in earlier work; conditions: cited from earlier work
STEP = target: T1, STEP (Mus musculus, UniProt P54830); test: Recovery of STEP activity by reducing agents; type: biochemical; conditions: after 1 h, DMSO control = 100%
T1 sequence (P54830 1-541): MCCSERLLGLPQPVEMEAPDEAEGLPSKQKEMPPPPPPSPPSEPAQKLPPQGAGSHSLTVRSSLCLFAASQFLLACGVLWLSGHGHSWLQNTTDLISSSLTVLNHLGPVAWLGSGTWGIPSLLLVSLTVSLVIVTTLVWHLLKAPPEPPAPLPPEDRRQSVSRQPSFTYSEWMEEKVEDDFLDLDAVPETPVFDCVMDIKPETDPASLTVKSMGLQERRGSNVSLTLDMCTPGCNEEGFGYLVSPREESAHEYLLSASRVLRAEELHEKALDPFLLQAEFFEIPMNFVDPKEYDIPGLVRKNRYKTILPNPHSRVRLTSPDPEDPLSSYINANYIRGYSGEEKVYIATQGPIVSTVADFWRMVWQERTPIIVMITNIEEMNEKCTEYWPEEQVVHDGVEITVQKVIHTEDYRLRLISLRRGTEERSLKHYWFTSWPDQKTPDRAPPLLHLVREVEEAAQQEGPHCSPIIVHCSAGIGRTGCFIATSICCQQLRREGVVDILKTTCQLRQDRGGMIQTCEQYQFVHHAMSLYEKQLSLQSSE
Method: Each sample was aliquoted out and 50 µL was transferred to wells of a 96-well microtiter plate containing 40 µL of 2× assay buffer with added reductant (GSH or DTT, 1 mM final concentration) and shaken for 0, 15, 30, or 60 additional minutes at ambient temperature. The reaction was started by addition of 10 µL of 10× pNPP substrate (stock, 20 mM, 2 mM in assay; total assay volume, 100 µL), and reaction progress was immediately monitored at 405 nm at a temperature of 27°C. The initial rate data collected were used to determine enzyme activity standardized to the DMSO controls.

PTP-SL = PTP-SL (Homo sapiens, UniProt Q15256); test: biochemical
Sequence of PTP-SL (Q15256 22-657): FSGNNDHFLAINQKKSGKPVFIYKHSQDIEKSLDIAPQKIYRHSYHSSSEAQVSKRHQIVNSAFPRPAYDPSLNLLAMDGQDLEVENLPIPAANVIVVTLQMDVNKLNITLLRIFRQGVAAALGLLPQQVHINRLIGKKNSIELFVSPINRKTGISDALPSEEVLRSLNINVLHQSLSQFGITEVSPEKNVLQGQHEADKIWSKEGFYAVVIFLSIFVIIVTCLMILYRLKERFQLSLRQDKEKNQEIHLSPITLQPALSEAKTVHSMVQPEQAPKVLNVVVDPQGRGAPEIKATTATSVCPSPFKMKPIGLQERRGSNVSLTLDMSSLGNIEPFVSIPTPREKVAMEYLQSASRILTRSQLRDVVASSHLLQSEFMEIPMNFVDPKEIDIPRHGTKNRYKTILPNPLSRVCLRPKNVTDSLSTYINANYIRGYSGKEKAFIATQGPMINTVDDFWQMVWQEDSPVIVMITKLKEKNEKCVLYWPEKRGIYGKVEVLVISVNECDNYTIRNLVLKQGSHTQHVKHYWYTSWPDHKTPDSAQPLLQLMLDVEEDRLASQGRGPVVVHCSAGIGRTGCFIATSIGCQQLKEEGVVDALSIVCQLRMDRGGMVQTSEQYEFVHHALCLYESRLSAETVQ
Method: Full-length HePTP and PTP-SL proteins were purchased from Abnova (Taipei, Taiwan). All proteins were dialyzed in 1,000-fold volume of buffer, which was repeated three times. […] After 10 min preincubation of enzyme and inhibitor at 27°C, 500 µM of pNPP was added and incubated for 30 min. Absorbance was taken at 405 nm using a Biotek plate reader.

With `Cl.Nc1cc(C(F)(F)F)cc2c1SSSSS2` [TC-2153, 8-(trifluoromethyl)-1,2,3,4,5-benzopentathiepin-6-amine hydrochloride] the “pERK1/2 (Y204/187), phospho-signal normalized to total protein and GAPDH” value [1] was 2.39±0.18, the “pGluN2B (Y1472), phospho-signal normalized to total protein and GAPDH” value [1] was 2.07±0.15 and the “pPyk2 (Y402), phospho-signal normalized to total protein and GAPDH” value [1] was 1.81±0.21. For the same molecule, the “MWM probe trial, target zone” value (3xTg-AD and WT mice; 3xTg-AD mice, 24 h after last acquisition day) was “spent as much time as WT mice in the target zone”, the “MWM acquisition phase escape latency” value (3xTg-AD and WT mice; 3xTg-AD mice, daily injection 3 h prior to training, days 5 and 6) was “reversed memory deficits” and the “MWM cued trial escape latency, AD mice” value (3xTg-AD and WT mice; AD-TC, visible platform, AD-Veh 15.3±3.0) was 16.0 ± 2.3 s. For the same molecule, the “MWM cued trial escape latency, WT mice” value (3xTg-AD and WT mice; WT-TC, visible platform, WT-Veh 15.1±1.7) was 15.6 ± 1.7 s, the “Solubility in aqueous solution” value [2] was “reasonable solubility in aqueous solution” and the “Aβ or phospho-tau levels” value (Aβ and phospho-tau) was “no significant changes in Aβ or phospho-tau levels”. The “Aβ or phospho-tau levels” value (Aβ and phospho-tau; row) was “did not affect the Aβ and tau brain pathology”, the “pERK1/2 and pPyk2 in hippocampus and frontal cortex of STEP KO mice” value ([3]; STEP KO mice) was “did not increase the Tyr phosphorylation of these substrates over baseline levels” and the “pERK1/2 and pPyk2 in frontal cortex and hippocampus” value ([3]; WT mice, 10 mg/kg i.p., 3 h) was “significant increase in pERK1/2 and pPyk2”. For the same molecule, the “pERK1/2 and pPyk2 in cerebellum, spleen, kidney, pancreas (tissues without STEP)” value ([3]; mice, 10 mg/kg i.p., 3 h) was “not in the cerebellum or in all tissues tested outside the brain”, the “Stability with GSH (19F NMR)” value ([4]; 1 mM GSH in pH 7.0 imidazole buffer) was “compound modification clearly observed” and the “Stability in assay conditions (19F NMR)” value ([4]; pH 7.0 imidazole buffer) was “stable and did not degenerate in the assay conditions”. For the same molecule, the “Behavioural effects taken as evidence of crossing the blood brain barrier” value (mice) was “anxiolytic and anticonvulsant effects”, the “Recovery of STEP activity with DTT” value (STEP; STEP 200 nM preincubated with 5 µM TC-2153, 1 mM DTT) was 75% and the “Recovery of STEP activity with GSH” value (STEP; STEP 200 nM preincubated with 5 µM TC-2153, 1 mM GSH) was 29%. The IC50 (PTP-SL) was 220.6 ± 1.3 nM.
